From PMC6100082, “Pyridine-Ureas as Potential Anticancer Agents: Synthesis and In Vitro Biological Evaluation” (Molecules : A Journal of Synthetic Chemistry and Natural …, 2018)
Like-named read-outs stand apart in the source and are kept apart here.

Assays:
[1] = test system: breast cancer MCF-7 cell line; assay: In vitro anti-proliferative activity, MTT assay; format: cell-based, human; conditions: Homo sapiens, MCF-7, MTT
How it was run: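 Cells were grown in DMEM with 10% heat-inactivated FBS, 10 μg/mL insulin and 1% penicillin-streptomycin. Anti-proliferative activity was measured by MTT colorimetric read-out, in triplicate. Values are the mean of at least three separate experiments.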

[2] = test system: NCI 58 cell line panel; assay: NCI one-dose SRB assay, whole panel / subpanel summary; format: cell-based, human; conditions: for inhibition at 10 µM: Homo sapiens, one dose, read-out: mean inhibition (mean % growth inhibition over NCI 58 cell line panel); for Mean Growth Percent: One Dose Mean Graph, 1.00E-5 Molar
Protocol: (§1) The structures of all the newly prepared pyridine-ureas 8a–n were submitted to the National Cancer Institute (NCI) Developmental Therapeutic Program. Eight compounds 8b, 8d, 8e, 8i, 8j and 8l–n were selected to be examined for their in vitro growth inhibitory activity. The anticancer assays were carried out according to the protocol of the Drug Evaluation Branch, NCI, Bethesda. The selected pyridine-ureas were tested at one dose primary anticancer assay against a panel of approximately 58 cancer lines (concentration 10^−5 M). The tested human cancer cell lines emerged from nine different cancer subtypes: leukemia, colon, melanoma, ovarian, lung, CNS, renal, breast and prostate cancers. The sulforhodamine B (SRB) protein assay was adopted to estimate the cell viability and growth. The results were reported as mean-graph of the percentage growth of the treated cells, and presented as percentage growth inhibition (GI%) caused by the test compounds (Table 2).
(§2) The anticancer assays were performed in accordance with the protocol of the Drug Evaluation Branch, NCI, Bethesda. A 48 h drug exposure protocol was used and sulforhodamine B (SRB) protein assay was applied to estimate the cell viability and growth, as reported earlier.

[3] = test system: CCRF-CEM; assay: NCI one-dose SRB assay (Leukemia); format: cell-based, human; conditions: for Growth Percent: 1.00E-5 Molar; for inhibition at 10 µM: Homo sapiens, read-out: Percentage growth inhibition (GI%)
Protocol: as §1, §2

[4] = test system: HL-60(TB); assay: NCI one-dose SRB assay (Leukemia); format: cell-based, human; conditions: for Growth Percent: 1.00E-5 Molar; for inhibition at 10 µM: Homo sapiens, read-out: Percentage growth inhibition (GI%)
Protocol: as §1, §2

[5] = test system: K-562; assay: NCI one-dose SRB assay (Leukemia); format: cell-based, human; conditions: for inhibition at 10 µM: Homo sapiens, K562, K-562, 10 μM, read-out: Percentage growth inhibition (GI%); for Growth Percent: K-562, 1.00E-5 Molar
Protocol: as §1, §2

[6] = test system: MOLT-4; assay: NCI one-dose SRB assay (Leukemia); format: cell-based, human; conditions: for inhibition at 10 µM: Homo sapiens, MOLT-4, 10 μM, read-out: Percentage growth inhibition (GI%); for Growth Percent: MOLT-4, 1.00E-5 Molar
Protocol: as §1, §2

[7] = test system: RPMI-8226; assay: NCI one-dose SRB assay (Leukemia); format: cell-based, human; conditions: for inhibition at 10 µM: Homo sapiens, RPMI-8226, 10 μM, read-out: Percentage growth inhibition (GI%); for Growth Percent: RPMI-8226, 1.00E-5 Molar
Protocol: as §1, §2

[8] = test system: SR; assay: NCI one-dose SRB assay (Leukemia); format: cell-based, human; conditions: for Growth Percent: 1.00E-5 Molar; for inhibition at 10 µM: Homo sapiens, read-out: Percentage growth inhibition (GI%)
Protocol: as §1, §2

[9] = test system: COLO 205; assay: NCI one-dose SRB assay (Colon Cancer); format: cell-based, human; conditions: for Growth Percent: COLO 205, 1.00E-5 Molar; for inhibition at 10 µM: Homo sapiens, COLO 205, 10 μM, read-out: Percentage growth inhibition (GI%)
Protocol: as §1, §2

[10] = test system: HCT-15; assay: NCI one-dose SRB assay (Colon Cancer); format: cell-based, human; conditions: for Growth Percent: HCT-15, 1.00E-5 Molar; for inhibition at 10 µM: Homo sapiens, HCT-15, 10 μM, read-out: Percentage growth inhibition (GI%)
Protocol: as §1, §2

[11] = test system: HT29; assay: NCI one-dose SRB assay (Colon Cancer); format: cell-based, human; conditions: for Growth Percent: HT29, 1.00E-5 Molar; for inhibition at 10 µM: Homo sapiens, HT-29, HT29, 10 μM, read-out: Percentage growth inhibition (GI%)
Protocol: as §1, §2

[12] = test system: KM12; assay: NCI one-dose SRB assay (Colon Cancer); format: cell-based, human; conditions: for inhibition at 10 µM: Homo sapiens, KM12, 10 μM, read-out: Percentage growth inhibition (GI%); for Growth Percent: KM12, 1.00E-5 Molar
Protocol: as §1, §2

[13] = test system: SW-620; assay: NCI one-dose SRB assay (Colon Cancer); format: cell-based, human; conditions: for inhibition at 10 µM: Homo sapiens, SW-620, 10 μM, read-out: Percentage growth inhibition (GI%); for Growth Percent: SW-620, 1.00E-5 Molar
Protocol: as §1, §2

[14] = test system: SK-MEL-28; assay: NCI one-dose SRB assay (Melanoma); format: cell-based, human; conditions: for inhibition at 10 µM: Homo sapiens, SK-MEL-28, 10 μM, read-out: Percentage growth inhibition (GI%); for Growth Percent: SK-MEL-28, 1.00E-5 Molar
How it was run: (§3)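 One-dose primary screen per NCI Drug Evaluation Branch protocol: 10^−5 M compound, 48 h, SRB viability/growth read-out, GI% reported.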

[15] = test system: UACC-257; assay: NCI one-dose SRB assay (Melanoma); format: cell-based, human; conditions: for inhibition at 10 µM: Homo sapiens, UACC-257, 10 μM, read-out: Percentage growth inhibition (GI%); for Growth Percent: UACC-257, 1.00E-5 Molar
How it was run: as §3

[16] = test system: 786-0; assay: NCI one-dose SRB assay (Renal Cancer); format: cell-based, human; conditions: for Growth Percent: 786-0, 1.00E-5 Molar; for inhibition at 10 µM: Homo sapiens, 786-0, 10 μM, read-out: Percentage growth inhibition (GI%)
Protocol: as §1, §2

[17] = test system: A498; assay: NCI one-dose SRB assay (Renal Cancer); format: cell-based, human; conditions: for Growth Percent: A498, 1.00E-5 Molar; for inhibition at 10 µM: Homo sapiens, A498, 10 μM, read-out: Percentage growth inhibition (GI%)
Protocol: as §1, §2

[18] = test system: RXF 393; assay: NCI one-dose SRB assay (Renal Cancer); format: cell-based, human; conditions: for inhibition at 10 µM: Homo sapiens, RXF 393, 10 μM, read-out: Percentage growth inhibition (GI%); for Growth Percent: RXF 393, 1.00E-5 Molar
Protocol: as §1, §2

[19] = test system: SN12C; assay: NCI one-dose SRB assay (Renal Cancer); format: cell-based, human; conditions: for Growth Percent: 1.00E-5 Molar; for inhibition at 10 µM: Homo sapiens, read-out: Percentage growth inhibition (GI%)
Protocol: as §1, §2

[20] = test system: TK-10; assay: NCI one-dose SRB assay (Renal Cancer); format: cell-based, human; conditions: for inhibition at 10 µM: Homo sapiens, TK-10, 10 μM, read-out: Percentage growth inhibition (GI%); for Growth Percent: TK-10, 1.00E-5 Molar
Protocol: as §1, §2

[21] = test system: UO-31; assay: NCI one-dose SRB assay (Renal Cancer); format: cell-based, human; conditions: for inhibition at 10 µM: Homo sapiens, UO-31, 10 μM, read-out: Percentage growth inhibition (GI%); for Growth Percent: UO-31, 1.00E-5 Molar
Protocol: as §1, §2

[22] = test system: DU-145; assay: NCI one-dose SRB assay (Prostate); format: cell-based, human; conditions: for Growth Percent: DU-145, 1.00E-5 Molar; for inhibition at 10 µM: Homo sapiens, DU-145, 10 μM, read-out: Percentage growth inhibition (GI%)
Protocol: as §1, §2

[23] = test system: PC-3; assay: NCI one-dose SRB assay (Prostate); format: cell-based, human; conditions: for inhibition at 10 µM: Homo sapiens, PC-3, 10 μM, read-out: Percentage growth inhibition (GI%); for Growth Percent: PC-3, 1.00E-5 Molar
Protocol: as §1, §2

[24] = MCF7, 48 h, 48 h of incubation, read-out: IC50 48 h
[25] = MCF7, 72 h, 72 h of incubation, read-out: IC50 72 h

`COc1cccc(NC(=O)Nc2ccc(-c3ccc(OC)c(OC)c3)nc2C)c1` [Compound 8m, 1-(6-(3,4-Dimethoxyphenyl)-2-methylpyridin-3-yl)-3-(3-methoxyphenyl) Urea] gave an IC50 [1, 24] of 23 ± 1.91 µM, an IC50 [1, 25] of 13.1 ± 1.12 µM and an inhibition at 10 µM [2] of 8%. The “Mean Growth Percent” value [2] was 92.83%, the “Growth Percent” value [3] was 89.11% and the inhibition at 10 µM [3] was 11%. For the same molecule, the “Growth Percent” value [4] was 73.33%, the inhibition at 10 µM [4] was 27% and the inhibition at 10 µM [5] was 22%. For the same molecule, the “Growth Percent” value [5] was 78.49%, the inhibition at 10 µM [6] was 35% and the “Growth Percent” value [6] was 65.34%. The inhibition at 10 µM [7] was 26%, the “Growth Percent” value [7] was 74.18% and the “Growth Percent” value [8] was 82.12%. The inhibition at 10 µM [8] was 18%, the “Growth Percent” value [9] was 119.56% and the inhibition at 10 µM [9] was under 10%. The “Growth Percent” value [10] was 91.11%, the inhibition at 10 µM [10] was under 10% and the “Growth Percent” value [11] was 75.95%. The inhibition at 10 µM [11] was 25%, the inhibition at 10 µM [12] was under 10% and the “Growth Percent” value [12] was 96.43%. The inhibition at 10 µM [13] was under 10%, the “Growth Percent” value [13] was 101.68% and the inhibition at 10 µM [14] was under 10%. The “Growth Percent” value [14] was 99.69%, the inhibition at 10 µM [15] was under 10% and the “Growth Percent” value [15] was 97.19%. The “Growth Percent” value [16] was 92.27%, the inhibition at 10 µM [16] was under 10% and the “Growth Percent” value [17] was 85.18%. The inhibition at 10 µM [17] was 15%, the inhibition at 10 µM [18] was under 10% and the “Growth Percent” value [18] was 108.45%. For the same molecule, the “Growth Percent” value [19] was 93.61%, the inhibition at 10 µM [19] was under 10% and the inhibition at 10 µM [20] was under 10%. The “Growth Percent” value [20] was 96.16%, the inhibition at 10 µM [21] was 20% and the “Growth Percent” value [21] was 80.45%. For the same molecule, the “Growth Percent” value [22] was 99.53%, the inhibition at 10 µM [22] was under 10% and the inhibition at 10 µM [23] was 41%. The “Growth Percent” value [23] was 59.08% and the melting point was 243 to 245 °C.

`COc1ccc(NC(=O)Nc2ccc(-c3ccc(OC)c(OC)c3)nc2C)cc1` [Compound 8n, 1-(6-(3,4-Dimethoxyphenyl)-2-methylpyridin-3-yl)-3-(4-methoxyphenyl) Urea] gave an IC50 [1, 24] of 1.88 ± 0.12 µM, an IC50 [1, 25] of 0.8 ± 0.07 µM and an inhibition at 10 µM [2] of 22 to 34%. For the same molecule, the “Mean Growth Percent” value [2] was 66.18%, the “Growth Percent” value [3] was 97.16% and the inhibition at 10 µM [3] was under 10%. For the same molecule, the “Growth Percent” value [4] was 85.74%, the inhibition at 10 µM [4] was 15% and the inhibition at 10 µM [5] was 27%. For the same molecule, the “Growth Percent” value [5] was 73.25%, the inhibition at 10 µM [6] was 15% and the “Growth Percent” value [6] was 85.62%. For the same molecule, the inhibition at 10 µM [7] was 17%, the “Growth Percent” value [7] was 83.77% and the “Growth Percent” value [8] was 57.29%. For the same molecule, the inhibition at 10 µM [8] was 43%, the “Growth Percent” value [9] was 91.95% and the inhibition at 10 µM [9] was under 10%. For the same molecule, the “Growth Percent” value [10] was 91.77%, the inhibition at 10 µM [10] was under 10% and the “Growth Percent” value [11] was 68.76%. For the same molecule, the inhibition at 10 µM [11] was 32%, the inhibition at 10 µM [12] was 55% and the “Growth Percent” value [12] was 45.29%. For the same molecule, the inhibition at 10 µM [13] was 36%, the “Growth Percent” value [13] was 64.84% and the inhibition at 10 µM [14] was 14%. For the same molecule, the “Growth Percent” value [14] was 86.76%, the inhibition at 10 µM [15] was 45% and the “Growth Percent” value [15] was 55.47%. For the same molecule, the “Growth Percent” value [16] was 11.07%, the inhibition at 10 µM [16] was 89% and the “Growth Percent” value [17] was 71.94%. For the same molecule, the inhibition at 10 µM [17] was 29%, the inhibition at 10 µM [18] was 42% and the “Growth Percent” value [18] was 58.20%. For the same molecule, the “Growth Percent” value [19] was 64.38%, the inhibition at 10 µM [19] was 36% and the inhibition at 10 µM [20] was 40%. The “Growth Percent” value [20] was 60.42%, the inhibition at 10 µM [21] was 19% and the “Growth Percent” value [21] was 81.72%. The “Growth Percent” value [22] was 72.24%, the inhibition at 10 µM [22] was 28% and the inhibition at 10 µM [23] was 19%. The “Growth Percent” value [23] was 81.42% and the melting point was 253 to 254 °C.
